{"source": "patent US5023271A", "about": "“Pharmaceutical microemulsions” (priority 1985, dated 1991)", "key": {"lipoprotein fractions": {"tested_on": "lipoprotein fractions", "assay": "Distribution of injected α-tocopherol and tocopherol acetate among serum lipoprotein fractions of rabbits", "procedure": "The serum samples were also layered under a sodium chloride gradient and centrifuged. The distribution of the injected α-tocopherol and tocopherol acetate among the lipoprotein fractions was assessed."}, "[1]": {"settings": "cited from earlier work"}, "[2]": {"tested_on": "lipoprotein components of human serum", "assay": "In vitro transfer of tocopherol from microemulsion to human serum lipoproteins (sodium chloride gradient)", "settings": "100 μl microemulsion of Example 1 + 900 μl saline, 1 hr, 37°", "procedure": "The diffusion of tocopherol in the mixtures was compared with the distribution of lipoproteins in the same mixtures and with the distribution of tocopherol from the untreated emulsion.\nFor a control, 100 μl of the microemulsion were incubated with 900 μl of saline solution under the same conditions. Each mixture was underlayered in a sodium chloride gradient and separated by ultracentrifugation according to Foreman, et al, J Lipid Research (1977) 18:759-767. The fractions of various densities were collected and each fraction was assayed for the content of tocopherol, tocopherol acetate, and cholesterol. The microemulsion alone mixed with saline gives a single peak for tocopherol at a density of approximately 1.018 g/ml. […] The treatment of microemulsion with serum effects the transfer of the tocopherol to serum in conjunction with the lipoprotein content thereof."}, "[3]": {"assay": "Long term daily injection to rabbits, serum samples at 1 week intervals", "settings": "1 ml preparation of Example 1 daily for 30 days", "method": "New Zealand male rabbits were injected daily with 1 ml doses of the preparation of Example 1 for 30 days."}, "in vivo": {"assay": "in vivo", "settings": "rabbit, iv, 15 mL/animal", "from_the_text": "(§1) The rabbits were then sacrificed and the tissues analyzed for their content of tocopherol and tocopherol acetate."}, "[4]": {"assay": "Short term serum and tissue levels after intravenous injection to rabbits", "from_the_text": "as §1"}, "[5]": {"assay": "Serum and liver extract levels in rats after IV injection", "settings": "1 ml preparation of Example 1 IV", "method": "The animals were sacrificed at 15 minute intervals for the first hour, after two hours, and then after 1, 3, 5, and 10 days. The levels of α-tocopherol and tocopherol acetate were assayed in the sera and liver extracts."}}, "data": [{"smiles": "Cc1c(C)c2c(c(C)c1O)CCC(C)(CCCC(C)CCCC(C)CCCC(C)C)O2", "note": "(racemic) [α-tocopherol]", "values": [{"measurement": "distribution among lipoprotein fractions after injection", "setting": "lipoprotein fractions; rabbit, in vivo, iv", "result": "transferred, apparently to the LDL fraction, in exchange for cholesterol"}, {"measurement": "adverse outcome of oral administration", "setting": "[1]; in vivo, po", "result": "gastrointestinal problems"}, {"measurement": "adverse outcome of intravenous administration", "setting": "[1]; intravenous, premature infants", "result": "implicated in several neonatal deaths"}, {"measurement": "density of the tocopherol peak, microemulsion mixed with saline (control)", "setting": "[2]", "result": "approximately 1.018 g/ml"}]}, {"smiles": "CC(=O)Oc1c(C)c(C)c2c(c1C)CCC(C)(CCC[C@H](C)CCC[C@H](C)CCCC(C)C)O2", "note": "(stereo partly drawn) [tocopherol acetate, α-tocopherol (dl) acetate]", "values": [{"measurement": "distribution among lipoprotein fractions after injection", "setting": "lipoprotein fractions; preparation of Example 1 i.v., serum samples on sodium chloride gradient", "result": "remained mainly at the density of the microemulsion alone"}, {"measurement": "serum tocopherol acetate", "setting": "[3]", "result": "No tocopherol acetate was detectable"}, {"measurement": "concentration at 5 min", "setting": "in vivo", "result": 280, "unit": "µg/mL"}, {"measurement": "α-tocopherol acetate in circulation by the end of 4 hr", "setting": "[4]; 15 ml preparation of Example 1 i.v., 4 hr", "result": "finally disappearing from the circulation by the end of the 4 hr period"}, {"measurement": "α-tocopherol acetate in liver, spleen, and other tissues", "setting": "[4]; after 4 hr", "result": "no α-tocopherol acetate could be detected"}, {"measurement": "hydrolysis of tocopherol acetate in liver", "setting": "[5]", "result": "completely hydrolyzed after approximately two hours"}]}]}
